Drawing on US12673942B2, “Azabicyclyl-substituted heterocycles as fungicides” (Bayer Aktiengesellschaft, priority 2020, dated 2026), this text covers chromatographic logP and inhibition for 43 compounds.

A short description of data set [1]: Measurement of Log P values by HPLC on reversed phase columns (EEC directive 79/831 Annex V.A8). It is filed as physicochemical. The protocol: Measurement of Log P values as provided herein was performed according to EEC directive 79/831 Annex V.A8 by HPLC (High Performance Liquid Chromatography) on reversed phase columns with the following methods: • ^[a] Log P value is determined by measurement of LC-UV, in an acidic range, with 0.1% formic acid in water and acetonitrile as eluent (linear gradient from 10% acetonitrile to 95% acetonitrile). • ^[b] Log P value is determined by measurement of LC-UV, in a neutral range, with 0.001 molar ammonium acetate solution in water and acetonitrile as eluent (linear gradient from 10% acetonitrile to 95% acetonitrile). • ^[c] Log P value is determined by measurement of LC-UV, in an acidic range, with 0.1% phosphoric acid and acetonitrile as eluent (linear gradient from 10% acetonitrile to 95% acetonitrile).
If more than one Log P value is available within the same method, all the values are given and separated by “+”. […]

The subject of another data set is Alternaria alternata. As to the kind of experiment: Alternaria alternata in vitro cell test. The note with it: 120 h, 20 ppm of active ingredient, liquid culture, 5 days incubation, read-out: efficacy (inhibition of fungal growth). It is filed as cell-based. How it is done:
(§1) • Solvent: […] Fungicides were solubilized in DMSO and the solution used to prepare the required range of concentrations. The final concentration of DMSO used in the assay was ≤1%. A spore suspension of Alternaria alternata was prepared and diluted to the desired spore density. Fungicides were evaluated for their ability to inhibit spore germination and mycelium growth in liquid culture assay. The compounds were added in the desired concentration to the culture medium with spores. After 5 days incubation, fungi-toxicity of compounds was determined by spectrometric measurement of mycelium growth. Inhibition of fungal growth was determined by comparing the absorbance values in wells containing the fungicides with the absorbance in control wells without fungicides.

For a further data set, the system named is Pyricularia oryzae. Kind of data set: microbe, parasite or virus in culture. It is filed as cell-based. The note with it: 120 h, read-out: efficacy (inhibition of fungal growth).
The subject of data set [2] is Colletotrichum lindemuthianum. Kind of data set: Colletotrichum lindemuthianum in vitro cell test. The note with it: 144 h, 20 ppm of active ingredient, liquid culture, 6 days incubation, read-out: efficacy (inhibition of fungal growth). It is filed as cell-based. How it is done: as §1, with “1%.” for “≤1%.”, “Colletotrichum lindemuthianum” for “Alternaria alternata”, “6” for “5”

Where [3] appears, read: method [a]: LC-UV, acidic range, 0.1% formic acid in water and acetonitrile as eluent.
[4] abbreviates: method [b]: LC-UV, neutral range, 0.001 molar ammonium acetate solution in water and acetonitrile as eluent.

As for `Cc1ccc(C[C@H](CON)NC(=O)c2c(Oc3cccc(C4CC4)c3F)cnc3ccccc23)c(C)c1` (racemic) [Compound 4-05], in data set [1] (setting [3]), the chromatographic logP (as a rule, lipophilicity estimated from chromatographic retention) is 3.31.

For the compound `C=Cc1cccc(Oc2cnc3ccccc3c2C(=O)N[C@@H](CON)Cc2ccc(C)cc2C)c1` (racemic) [Compound 4-06], the chromatographic logP in data set [1] (setting [3]) is 3.09. With `Cc1ccc(C[C@H](CON)NC(=O)c2c(Oc3cccc(Br)c3F)cnc3ccccc23)c(C)c1` (racemic) [Compound 4-07], in data set [1] (setting [3]), the chromatographic logP stood at 3.11.

As for `C#Cc1cccc(Oc2cnc3ccccc3c2C(=O)N[C@@H](CON)Cc2ccc(C)cc2Cl)c1` (racemic) [Compound 4-08], the chromatographic logP in data set [1] (setting [3]) stood at 2.87. Still for that read-out and setting: next, `C=Cc1cccc(Oc2cnc3ccccc3c2C(=O)N[C@@H](CON)Cc2ccc(C)cc2Cl)c1` (racemic) [Compound 4-09]: 3.12. In turn, `Cc1ccc(C[C@H](CON)NC(=O)c2c(Oc3cccc(C(F)(F)F)c3)nnc3c2CCCC3)c(C)c1` (racemic) [Compound 4-10] came in with a chromatographic logP in data set [1] (setting [3]) of 2.91.

For the compound `Cc1ccc(C[C@H](CON)NC(=O)c2c(Oc3cccc(Cl)c3F)nnc3c2CCCC3)c(C)c1` (racemic) [Compound 4-11], the chromatographic logP in data set [1] (setting [3]) was 2.7. `Cc1ccc(C[C@H](CON)NC(=O)c2c(Oc3cccc(Br)c3F)nnc3c2CCCC3)c(C)c1` (racemic) [Compound 4-12] returned a chromatographic logP in data set [1] (setting [3]) of 2.75.

With `Cc1ccc(C[C@H](CON)NC(=O)c2c(Oc3cccc(C(F)(F)F)c3)nnc3c2CCC3)c(C)c1` (racemic) [Compound 4-13], the chromatographic logP in data set [1] (setting [3]) is 2.78. `Cc1ccc(C[C@H](CON)NC(=O)c2c(Oc3cccc(C(F)F)c3)nnc3c2CCCC3)c(C)c1` (racemic) [Compound 4-14] registered a chromatographic logP in data set [1] (setting [3]) of 2.55. Take `Cc1ccc(C[C@H](CON)NC(=O)c2c(Oc3cccc(C4CC4)c3F)nnc3c2CCC3)c(C)c1` (racemic) [Compound 4-15]: the chromatographic logP in data set [1] (setting [3]) turned out to be 2.83. The same measure, in the same setting: for `Cc1ccc(C[C@@H]2CON=C(c3c(Br)cnc4nccnc34)N2)c(C)c1` (racemic) [Compound 7-01] the value was 2.41; for `Cc1ccc(C[C@H](N)CCl)c(C)c1` (racemic) [Compound 9-02], 1.24; for `N[C@H](CCl)Cc1ccc(Br)cc1Cl` (racemic) [Compound 9-03], 1.37.

As for `Cc1ccc(CC(CCl)NC(=O)c2c(Oc3cccc(C4CC4)c3F)nnc3ccccc23)c(C)c1` (racemic) [Compound 10-01, N-[(2RS)-1-chloro-3-(2,4-dimethylphenyl)propan-2-yl]-3-(3-cyclopropyl-2-fluorophenoxy)cinnoline-4-carboxamide], the chromatographic logP in data set [1] (setting [3]) was found to be 4.73. On the same count and under the same terms, next, `Cc1ccc(CC(CCl)NC(=O)c2c(Oc3cccc(C(F)(F)F)c3)cnc3ccccc23)c(C)c1` (racemic) [Compound 10-02, N-[(2RS)-1-chloro-3-(2,4-dimethylphenyl)propan-2-yl]-3-[3-(trifluoro-methyl)phenoxy]quinoline-4-carboxamide]: 4.81; `Cc1ccc(C[C@H](CCl)NC(=O)c2c(Oc3cccc(C4CC4)c3F)cnc3ccccc23)c(Cl)c1` (racemic) [Compound 10-03]: 5; `Cc1ccc(C[C@H](CCl)NC(=O)c2c(Oc3cccc(Br)c3F)cnc3ccccc23)c(Cl)c1` (racemic) [Compound 10-04]: 4.7. `Cc1ccc(C[C@H](CCl)NC(=O)c2c(Oc3cccc(C(F)F)c3)cnc3ccccc23)c(Cl)c1` (racemic) [Compound 10-05] registered a chromatographic logP in data set [1] (setting [3]) of 4.33. As for `Cc1ccc(C[C@H](CCl)NC(=O)c2c(Oc3cccc(C(F)(F)F)c3)cnc3ccoc23)c(C)c1` (racemic) [Compound 10-06], the chromatographic logP in data set [1] (setting [3]) amounted to 4.55. Still for that read-out and setting: for `Cc1ccc(C[C@H](CCl)N/C(=N\O)c2c(Oc3cccc(C4CC4)c3F)nnc3ccccc23)c(C)c1` (racemic) [Compound 12-01, N-[(2RS)-1-chloro-3-(2,4-dimethylphenyl)propan-2-yl]-3-(3-cyclopropyl-2-fluorophenoxy)-N′-hydroxycinnoline-4-carboximidamide] the value was 4.7; for `Cc1ccc(C[C@H](CCl)NC(=NO)c2c(Oc3cccc(C4CC4)c3F)cnc3ccccc23)c(Cl)c1` (racemic) [Compound 12-02], 4.93; for `Cc1ccc(C[C@H](CCl)NC(=NO)c2c(Oc3cccc(Br)c3F)cnc3ccccc23)c(Cl)c1` (racemic) [Compound 12-03], 4.62. With `Cc1ccc(C[C@H](CCl)NC(=NO)c2c(Oc3cccc(C(F)F)c3)cnc3ccccc23)c(Cl)c1` (racemic) [Compound 12-04], in data set [1] (setting [3]), the chromatographic logP amounted to 4.28. The same measure, in the same setting: for `Cc1ccc(C[C@H](CCl)NC(=NO)c2c(Oc3cccc(C(F)(F)F)c3)cnc3ccoc23)c(C)c1` (racemic) [Compound 12-05] the value was 4.4; for `Cc1ccc(C[C@H](CCl)NC(=O)c2c(Br)cnc3nccnc23)c(C)c1` (racemic) [Compound 14-01], 2.97. The same measure, in the same setting: next, `Cc1ccc(C[C@H](CCl)NC(=NO)c2c(Br)cnc3nccnc23)c(C)c1` (racemic) [Compound 15-01]: 2.73.

`Cn1cc(-c2ccc(C[C@@H]3CON=C(c4c(Oc5cccc(C(F)(F)F)c5)nnc5ccccc45)N3)c(Cl)c2)cn1` (racemic) [Compound I-008]: the inhibition at 20 ppm (in the data set with Alternaria alternata; in the data set on Pyricularia oryzae; in data set [2]) was ≥ 70% each time. In data set [1] (setting [3]), this compound showed a chromatographic logP of 3.37.

As for `Cc1ccc(CC2CNN=C(c3c(Oc4cccc(C(F)(F)F)c4)cnc4ccccc34)N2)c(C)c1` (racemic) [Compound I-010, 4-[(5RS)-5-(2,4-dimethylbenzyl)-1,4,5,6-tetrahydro-1,2,4-triazin-3-yl]-3-[3-(trifluoromethyl)phenoxy]quinoline], the inhibition (usually the change of the read-out against control, counted positive when it falls) at 20 ppm with Alternaria alternata was ≥ 70%. In data set [1] (setting [3]), this compound returned a chromatographic logP of 2.57. The compound `Cc1ccc(C[C@@H]2CON=C(c3c(Oc4cccc(C)c4F)cnc4ccccc34)N2)c(C)c1` (racemic) [Compound I-020] showed a chromatographic logP in data set [1] (setting [3]) of 4.15. For the compound `Cc1ccc(C[C@@H]2CON=C(c3c(Oc4cccc(C5CC5)c4F)cnc4ccccc34)N2)c(Cl)c1` (racemic) [Compound I-021], the chromatographic logP in data set [1] (setting [3]) was found to be 4.55. On the same count and under the same terms, for `Cc1ccc(C[C@@H]2CON=C(c3c(Oc4cccc(C(F)(F)F)c4)nnc4c3CCCC4)N2)c(C)c1` (racemic) [Compound I-022] the value was 3.99. In turn, `Cc1ccc(C[C@@H]2CON=C(c3c(Oc4cccc(Cl)c4F)nnc4c3CCCC4)N2)c(C)c1` (racemic) [Compound I-023] came in with a chromatographic logP in data set [1] (setting [3]) of 3.91.

In data set [1] (setting [3]), `Cc1ccc(C[C@@H]2CON=C(c3c(Oc4cccc(Br)c4F)nnc4c3CCCC4)N2)c(C)c1` (racemic) [Compound I-024] returned a chromatographic logP of 4.01. Same read-out and setting: next, `C#Cc1cccc(Oc2cnc3ccccc3c2C2=NOC[C@@H](Cc3ccc(C)cc3Cl)N2)c1` (racemic) [Compound I-025]: 3.91. Same read-out and setting: for `C=Cc1cccc(Oc2cnc3ccccc3c2C2=NOC[C@@H](Cc3ccc(C)cc3Cl)N2)c1` (racemic) [Compound I-026] the value was 4.19; for `Cc1ccc(C[C@@H]2CON=C(c3c(Oc4cccc(C(F)(F)F)c4)nnc4c3CCC4)N2)c(C)c1` (racemic) [Compound I-027], 3.87; for `Cc1ccc(C[C@@H]2CON=C(c3c(Oc4cccc(C(F)F)c4)nnc4c3CCCC4)N2)c(C)c1` (racemic) [Compound I-028], 3.6. `Cc1ccc(C[C@@H]2CON=C(c3c(Oc4cccc(C5CC5)c4F)nnc4c3CCC4)N2)c(C)c1` (racemic) [Compound I-029]: in data set [1] (setting [3]), the chromatographic logP came out at 4.13. In data set [1] (setting [3]), `Cc1ccc(C[C@@H]2CON=C(c3c(Oc4cccc(Br)c4F)cnc4ccccc34)N2)c(Cl)c1` (racemic) [Compound I-030] had a chromatographic logP of 4.37. With `Cc1ccc(C[C@@H]2CON=C(c3c(Oc4cccc(C(F)F)c4)cnc4ccccc34)N2)c(Cl)c1` (racemic) [Compound I-031], the chromatographic logP in data set [1] (setting [3]) is 3.98.

For the compound `CCOC(=O)c1c(Oc2cccc(C(F)(F)F)c2)nnc2c1CCC2` [Compound 1-22], the chromatographic logP came out at 3.5 in data set [1] (setting [3]) and 3.35 in data set [1] (setting [4]). The corresponding values for `O=C(O)c1c(Oc2cccc(C(F)(F)F)c2)nnc2c1CCC2` [Compound 1-23] are 1.75 and 0.44.
